These results are taken from patent US20240376100A1 (Redona Therapeutics, Inc., priority 2021, published 2024).

Structures can show the parent of a compound that is named as a salt. Where only a bound is given, the exact number is not on record here.

The target in the assay is PAPD5 enzyme (Homo sapiens, UniProt Q8NDF8). Put plainly: PAPD5 assay (AMP incorporation onto 3'-terminus of RNA substrate, fluorescence quench). As to conditions: PAPD5 protein 0.3 nM, ATP 50 μM, 30 minutes preincubation, room temperature; read-out: Potency PAPD5 IC50. The class given is biochemical. An outline of the steps:
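Enzyme at 0.3 nM with 50 μM ATP, pH 7.3 HEPES buffer, preincubated with compound 30 minutes at room temperature; 5 nM 5′-fluorescein RNA substrate and 20 nM TAMRA quench probe then added. Initial rates from kinetic fluorescein decrease over ~90 minutes; IC50 by four-parameter fit.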

Usually IC50 stands for the concentration at which inhibition is half-maximal.

PAPD5 enzyme, sequence (Q8NDF8 whole entry): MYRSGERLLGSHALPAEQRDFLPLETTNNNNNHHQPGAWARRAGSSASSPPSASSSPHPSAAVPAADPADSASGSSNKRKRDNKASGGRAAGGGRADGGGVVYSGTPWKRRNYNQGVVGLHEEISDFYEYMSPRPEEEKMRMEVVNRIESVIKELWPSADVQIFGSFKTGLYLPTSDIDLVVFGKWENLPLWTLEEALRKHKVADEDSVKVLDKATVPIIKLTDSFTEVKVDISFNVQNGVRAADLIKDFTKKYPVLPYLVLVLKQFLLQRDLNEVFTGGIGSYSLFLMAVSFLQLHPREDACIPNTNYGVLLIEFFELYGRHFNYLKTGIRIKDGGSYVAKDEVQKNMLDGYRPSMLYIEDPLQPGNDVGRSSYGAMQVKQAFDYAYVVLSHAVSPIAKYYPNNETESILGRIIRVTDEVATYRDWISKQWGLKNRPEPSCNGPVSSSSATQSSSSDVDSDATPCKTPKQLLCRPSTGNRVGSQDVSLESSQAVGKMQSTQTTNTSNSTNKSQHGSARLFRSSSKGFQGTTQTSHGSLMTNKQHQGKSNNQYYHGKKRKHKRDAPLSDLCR

On to `O=C(O)c1cn(-c2cnccn2)c2cc(N3Cc4ccccc4C3)c(Cl)cc2c1=O` [Example 21, 6-chloro-7-(isoindolin-2-yl)-4-oxo-1-(pyrazin-2-yl)-1,4-dihydroquinoline-3-carboxylic acid], for which the IC50 was at most 1000 nM.

For `Cc1cc(NC(=O)OC(C)(C)C)ncc1-n1cc(C(=O)O)c(=O)c2cc(Cl)c(N3Cc4cccnc4C3)cc21` [Example 4, 1-(6-{[(tert-butoxy)carbonyl]amino}-4-methylpyridin-3-yl)-6-chloro-4-oxo-7-{5H,6H,7H-pyrrolo[3,4-b]pyridin-6-yl}-1,4-dihydroquinoline-3-carboxylic acid], the IC50 was at most 1000 nM.

As for `O=C(O)c1cn(-c2ccc(O)cc2F)c2cc(-n3ncc4cc(Cl)cc(Cl)c43)c(F)cc2c1=O` [Example 10, 7-(5,7-dichloro-1H-indazol-1-yl)-6-fluoro-1-(2-fluoro-4-hydroxyphenyl)-4-oxo-1,4-dihydroquinoline-3-carboxylic acid], the IC50 was at most 1000 nM.

As to `CCOC(=O)c1cn(-c2ccc(N)nc2)c2cc(N3Cc4cccnc4C3)c(Cl)cc2c1=O` [Example 89], the IC50 was at most 1000 nM.

Consider `COCCN(C)c1ccn(-c2nc3c(cc2Cl)c(=O)c(C(=O)O)cn3-c2ccc(N)nc2)n1` [Example 95, 1-(6-aminopyridin-3-yl)-6-chloro-7-(3-((2-methoxyethyl)(methyl)amino)-1H-pyrazol-1-yl)-4-oxo-1,4-dihydro-1,8-naphthyridine-3-carboxylic acid], for which the IC50 is at most 1000 nM.

Take `O=C(O)c1cn(Cc2ccccc2)c2nc(N3Cc4cccnc4C3)c(Cl)cc2c1=O` [Example 40, 1-benzyl-6-chloro-7-(5,7-dihydro-6H-pyrrolo[3,4-b]pyridin-6-yl)-4-oxo-1,4-dihydro-1,8-naphthyridine-3-carboxylic acid]: the IC50 was at most 1000 nM.

For the compound `Cc1ccnc2c1CN(c1nc3c(cc1Cl)c(=O)c(C(=O)O)cn3-c1cnccn1)C2` [Example 64, 6-chloro-7-(4-methyl-5,7-dihydro-6H-pyrrolo[3,4-b]pyridin-6-yl)-4-oxo-1-(pyrazin-2-yl)-1,4-dihydro-1,8-naphthyridine-3-carboxylic acid], the IC50 was at most 1000 nM.

Consider `Nc1ccc(-n2cc(C(=O)O)c(=O)c3cc(F)c(N4Cc5ccccc5C4)cc32)cn1` [Example 195, 1-(6-aminopyridin-3-yl)-6-fluoro-7-(isoindolin-2-yl)-4-oxo-1,4-dihydroquinoline-3-carboxylic acid], for which the IC50 is at most 1000 nM.

`Cc1cc2c(=O)c(C(=O)O)cn(-c3cnc(NC(=O)OC(C)(C)C)cc3C)c2cc1N1Cc2cccnc2C1` [Example 142, 1-(6-((tert-butoxycarbonyl)amino)-4-methylpyridin-3-yl)-7-(5,7-dihydro-6H-pyrrolo[3,4-b]pyridin-6-yl)-6-methyl-4-oxo-1,4-dihydroquinoline-3-carboxylic acid]: the half-maximal inhibitory concentration (IC50) is at most 1000 nM.

Take `O=C(O)c1cn(-c2ccc(CO)cc2F)c2cc(N3Cc4cccnc4C3)c(Cl)cc2c1=O` [Example 17, 6-chloro-7-(5,7-dihydro-6H-pyrrolo[3,4-b]pyridin-6-yl)-1-(2-fluoro-4-(hydroxymethyl)phenyl)-4-oxo-1,4-dihydroquinoline-3-carboxylic acid]: the IC50 was at most 1000 nM.

For the compound `O=C(O)c1cn(CC2CCNCC2)c2cc(N3Cc4cccnc4C3)c(Cl)cc2c1=O` [Example 119, 6-chloro-7-(5,7-dihydro-6H-pyrrolo[3,4-b]pyridin-6-yl)-4-oxo-1-(piperidin-4-ylmethyl)-1,4-dihydroquinoline-3-carboxylic acid hydrochloride], the IC50 was at most 1000 nM.

Turning to `CNCCNc1cc(C)c(-n2cc(C(=O)O)c(=O)c3cc(Cl)c(N4Cc5cccnc5C4)nc32)cn1` [Example 171, 6-chloro-7-(5,7-dihydro-6H-pyrrolo[3,4-b]pyridin-6-yl)-1-(4-methyl-6-((2-(methylamino)ethyl)amino)pyridin-3-yl)-4-oxo-1,4-dihydro-1,8-naphthyridine-3-carboxylic acid], the IC50 is at most 1000 nM.
